Data taken from PubChem BioAssay (NCI).
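Following 48 hours of exposure in 96-well plates, responses at five concentrations were used to interpolate endpoints linearly. Here, GI50 denotes the concentration required for 50% inhibition of growth. The concentration for full growth arrest is given as TGI.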

What was measured:
Assay in all cases: NCI-60 cell line screen, 48 h
A549 NSCLC = system: A549 NSCLC
SF-539 CNS = system: SF-539 CNS
SR leukemia = system: SR leukemia
SNB-19 CNS = system: SNB-19 CNS
SNB-78 CNS = system: SNB-78 CNS
KM20L2 colon = system: KM20L2 colon
HOP-18 NSCLC = system: HOP-18 NSCLC
LXFL 529 NSCLC = system: LXFL 529 NSCLC
DMS 273 small cell lung = system: DMS 273 small cell lung
DMS 114 small cell lung = system: DMS 114 small cell lung
DLD-1 colon = system: DLD-1 colon
M19-MEL melanoma = system: M19-MEL melanoma

O=c1cc(-c2cccc3ccccc23)[nH]c2ncccc12
GI50 (A549 NSCLC): 21.6 nM
TGI (A549 NSCLC): > 100 µM
GI50 (SF-539 CNS): 15.9 nM
TGI (SR leukemia): > 100 µM
GI50 (SNB-19 CNS): 36.6 nM
TGI (SNB-19 CNS): > 100 µM

Fc1cc(-c2cc(-c3ccccc3)no2)c(Cl)cc1Cl
TGI (A549 NSCLC): > 41.6 µM
TGI (SF-539 CNS): > 17.2 µM
TGI (SR leukemia): > 41.8 µM
TGI (SNB-19 CNS): > 62.5 µM

CC(C)=CC[C@]12CCN[C@H]1N(S(=O)(=O)c1ccccc1)c1ccccc12
TGI (A549 NSCLC): 59.1 µM
TGI (SF-539 CNS): 36.9 µM
TGI (SR leukemia): 51 µM
TGI (SNB-19 CNS): 51.2 µM

COC(=O)c1ccccc1/C=C1\Cc2ccc(C)c(C)c2C1=O
TGI (A549 NSCLC): > 100 µM
TGI (SF-539 CNS): > 100 µM
TGI (SR leukemia): > 100 µM
TGI (SNB-19 CNS): > 100 µM

O=C(Oc1ccccn1)c1cc2cc(CCl)ccc2oc1=O
TGI (A549 NSCLC): > 100 µM
TGI (SF-539 CNS): > 100 µM
TGI (SR leukemia): > 100 µM
TGI (SNB-19 CNS): 71.2 µM

COc1cc(C2c3cc4c(cc3OC3(OC)COC(=O)C23)OCO4)cc(OC)c1OC(C)=O (stereo not given)
TGI (A549 NSCLC): > 100 µM
TGI (SF-539 CNS): 2.25 µM
TGI (SR leukemia): > 31.6 µM
TGI (SNB-19 CNS): > 100 µM

O=C(/C=C/c1cc2ccccc2o1)N1CCN(c2ccccn2)CC1
TGI (A549 NSCLC): > 100 µM
TGI (SF-539 CNS): > 100 µM
TGI (SR leukemia): > 100 µM
TGI (SNB-19 CNS): > 100 µM

CC(=O)c1sc(Nc2nnc(-c3ccc(-c4nnc(Nc5nc(C)c(C(C)=O)s5)o4)cc3)o2)nc1C
TGI (SNB-78 CNS): > 100 µM
TGI (A549 NSCLC): > 10 µM
TGI (KM20L2 colon): > 100 µM
TGI (HOP-18 NSCLC): > 100 µM
TGI (SR leukemia): > 100 µM
TGI (SNB-19 CNS): > 100 µM
TGI (LXFL 529 NSCLC): > 100 µM
TGI (DMS 273 small cell lung): > 100 µM
TGI (DMS 114 small cell lung): > 100 µM
TGI (DLD-1 colon): > 100 µM

O=c1[nH]nc(Cc2ccccc2)n1/N=C/c1ccccc1O
TGI (A549 NSCLC): > 100 µM
TGI (SF-539 CNS): > 100 µM
TGI (SNB-19 CNS): > 100 µM

CC(CO)(CO)N1C(=O)C2C3C=CC(C3)C2C1=O (stereo not given)
TGI (A549 NSCLC): > 100 µM
TGI (SF-539 CNS): > 100 µM
TGI (SR leukemia): > 100 µM
TGI (SNB-19 CNS): > 100 µM

CC1c2c(Cl)nc3ccccc3c2Oc2c1c(Cl)nc1ccccc21
TGI (SNB-78 CNS): > 100 µM
TGI (A549 NSCLC): > 100 µM
TGI (KM20L2 colon): > 100 µM
TGI (SF-539 CNS): > 100 µM
TGI (HOP-18 NSCLC): > 100 µM
TGI (SNB-19 CNS): > 100 µM
TGI (M19-MEL melanoma): > 100 µM
TGI (LXFL 529 NSCLC): > 100 µM
TGI (DMS 273 small cell lung): > 100 µM
TGI (DMS 114 small cell lung): > 100 µM
TGI (DLD-1 colon): > 100 µM

COC1(OC)C(N(C)C)=C(Cl)C(=O)/C1=C/C=O
TGI (A549 NSCLC): > 100 µM
TGI (KM20L2 colon): > 100 µM
TGI (HOP-18 NSCLC): > 100 µM
TGI (SR leukemia): > 100 µM
TGI (SNB-19 CNS): > 100 µM
TGI (M19-MEL melanoma): > 100 µM
TGI (LXFL 529 NSCLC): > 100 µM
TGI (DMS 273 small cell lung): > 100 µM
TGI (DMS 114 small cell lung): > 100 µM
TGI (DLD-1 colon): > 100 µM

Cc1ccnc2[nH]c3ccccc3c(=O)c12
TGI (SF-539 CNS): 46.6 µM
TGI (SR leukemia): > 100 µM
TGI (SNB-19 CNS): > 100 µM

CC1OC(OC2C(O)COC(OC3C(C)OC(OC4C(OC(=O)[C@]56CCC(C)(C)C[C@@H]5C5=CCC7[C@@]8(C)C[C@H](O)[C@H](OC9OC(CO)C(O)C(O)C9O)[C@@](C)(CO)[C@@H]8CC[C@@]7(C)[C@]5(C)CC6)OCC(O)C4O)C(O)C3OC3OCC(O)(CO)C3O)C2O)C(O)C(O)C1O (stereo not given in full)
TGI (A549 NSCLC): 18 µM
TGI (SF-539 CNS): 44.8 µM
TGI (SR leukemia): 38 µM
TGI (SNB-19 CNS): 29 µM

Cc1cc2oc(=N)c(C#N)c(C)c2cc1C
TGI (A549 NSCLC): > 100 µM
TGI (SF-539 CNS): > 100 µM
TGI (SNB-19 CNS): > 100 µM

OC1C#CCSCC#C/C=C\1 (stereo not given)
TGI (SF-539 CNS): > 100 µM
TGI (SR leukemia): > 100 µM
TGI (SNB-19 CNS): > 100 µM

CN(C)CCCC12CCCCC1=Nc1ccccc12 (stereo not given)
TGI (A549 NSCLC): > 100 µM
TGI (SF-539 CNS): > 100 µM
TGI (SR leukemia): 69.2 µM
TGI (SNB-19 CNS): > 100 µM

CC(=O)Oc1ccc2c(C)cc(=O)oc2c1OC(C)=O
TGI (A549 NSCLC): > 100 µM
TGI (SF-539 CNS): > 100 µM
TGI (SR leukemia): > 100 µM
TGI (SNB-19 CNS): > 100 µM

Cn1cc(NC(=O)Nc2cc(C(=O)Nc3cc(C(=O)Nc4ccc(S(=O)(=O)O)c5cc(S(=O)(=O)O)ccc45)n(C)c3)n(C)c2)cc1C(=O)Nc1cc(C(=O)Nc2ccc(S(=O)(=O)O)c3cc(S(=O)(=O)O)ccc23)n(C)c1
TGI (A549 NSCLC): > 100 µM
TGI (SF-539 CNS): > 100 µM
TGI (SR leukemia): > 100 µM
TGI (SNB-19 CNS): > 100 µM

CCOC(=O)CC[C@H](NC(=O)[C@H](N)Cc1ccc(N(CCCl)CCCl)cc1)C(=O)OCC
TGI (A549 NSCLC): > 100 µM
TGI (SF-539 CNS): 30.8 µM
TGI (SR leukemia): > 100 µM
TGI (SNB-19 CNS): > 96 µM

CC#CCOC(=O)c1ccccc1OC(C)=O
TGI (SF-539 CNS): > 100 µM
TGI (SR leukemia): > 100 µM
TGI (SNB-19 CNS): > 100 µM

CN=C(N=Nc1c(O)[nH]c2ccccc12)SCC(=O)c1ccc(Br)cc1
TGI (A549 NSCLC): 20 µM
TGI (SF-539 CNS): 23.8 µM
TGI (SNB-19 CNS): > 100 µM

N#CCCN(C(=O)Nc1ccccc1)[C@H]1CCCC[C@@H]1N(C(=O)Nc1ccccc1)c1ccccc1
TGI (A549 NSCLC): > 100 µM
TGI (SF-539 CNS): > 100 µM
TGI (SR leukemia): > 100 µM
TGI (SNB-19 CNS): > 100 µM

O=C1CCCC1CN1CCCC1 (stereo not given)
TGI (A549 NSCLC): > 100 µM
TGI (SF-539 CNS): 36.7 µM
TGI (SR leukemia): 1.16 µM
TGI (SNB-19 CNS): > 100 µM

Nc1nc(N)c2c3c(cnc2n1)CC(c1ccccc1)CC3 (stereo not given)
TGI (A549 NSCLC): > 100 µM
TGI (SF-539 CNS): > 100 µM
TGI (SR leukemia): 66.1 µM
TGI (SNB-19 CNS): 46.8 µM

CSc1ncnc2c1ncn2CCC(=O)OC(C)(C)C
TGI (A549 NSCLC): > 100 µM
TGI (SF-539 CNS): > 100 µM
TGI (SR leukemia): > 100 µM
TGI (SNB-19 CNS): > 100 µM

CN(CC(=O)O)c1ncc2c(n1)CCCC2
TGI (A549 NSCLC): > 100 µM
TGI (SF-539 CNS): > 100 µM
TGI (SR leukemia): > 100 µM
TGI (SNB-19 CNS): > 100 µM

N#Cc1c(N)nc2n[nH]c(N)c2c1-c1ccc(Cl)cc1
TGI (A549 NSCLC): > 72.9 µM
TGI (SF-539 CNS): 45 µM
TGI (SR leukemia): > 100 µM
TGI (SNB-19 CNS): > 59.9 µM

Oc1[nH]c2ccccc2c1N=NC(=S)Nc1cccc(Cl)c1
TGI (A549 NSCLC): 35.6 µM
TGI (SF-539 CNS): 22.4 µM
TGI (SR leukemia): 9.71 µM
TGI (SNB-19 CNS): > 100 µM

COc1ccc(/C=C2\N=C(SC)N(CN3CCOCC3)C2=O)cc1
TGI (A549 NSCLC): > 100 µM
TGI (SR leukemia): > 100 µM
TGI (SNB-19 CNS): > 100 µM

O=C(Nc1nc(C23CC4CC(CC(C4)C2)C3)cs1)c1cc2ccc(O)cc2oc1=O
TGI (A549 NSCLC): 38.3 µM
TGI (SF-539 CNS): 86.6 µM
TGI (SNB-19 CNS): 80.6 µM

COC(=O)C1=C(C(=O)NNc2ccccc2)N(c2cccnc2Cl)C(c2ccccc2)=CC1c1ccccc1 (stereo not given)
TGI (A549 NSCLC): > 100 µM
TGI (SF-539 CNS): > 100 µM
TGI (SR leukemia): > 100 µM
TGI (SNB-19 CNS): > 100 µM

COC(CNC(=O)C(C)NC(=O)/C=C/c1ccccc1)OC (stereo not given)
TGI (A549 NSCLC): > 100 µM
TGI (SF-539 CNS): > 100 µM
TGI (SR leukemia): > 100 µM
TGI (SNB-19 CNS): > 100 µM
